The subject of one data set is human sperm. Description: Human sperm motility, transmembrane migration ratio (two-chamber membrane method). In kind it is cell-based. The note with it: for inhibition at 25000 µM: beta-blocker 25 mM alone; for inhibition at 100 µM: beta-blocker 0.1 mM alone. As to the method:
A simple method for measuring human sperm motility was developed as a modification to the method of C. […] The method used two chambers separated by a membrane and assessed the proportion of spermatozoa, from a small aliquot of semen, that moved across the membrane from the upper to the lower chamber.
The apparatus consisted of an upper and a lower chamber, the upper chamber being the plunger of a 2 ml disposable syringe. A 13 mm diameter Nuclepore membrane filter was bonded to the plunger using dichloromethane.
The mixture was pre-incubated at 37° C. for 10 minutes.
After pre-incubation the mixture was vortexed and 100 μl was pipetted onto the membrane of the upper chamber. The upper chamber was then inserted into the lower chamber, which contained 2 ml of phosphate buffered saline at 37° C.
The relative positions of the two chambers were fixed so that the fluid levels were equal.
The apparatus was then incubated for 90 mins. at 37° C. After this time, the upper chamber was removed and its contents were washed into 1.9 ml phosphate buffered saline containing 50 ul of 10% formalin solution by breaking the membrane. The spermatozoa in the lower chamber were also killed by adding 50 ul of the formalin to the lower chamber.
Finally, the number of spermatozoa in the upper and lower chambers were counted using a haemocytometer. The proportion of spermatozoa that traverse the membrane into the lower chamber is referred to as the transmembrane migration ratio.
Using the same technique, but a different sperm source the control of sperm motility achieved by nonoxynol-9, various beta-blockers and mixtures of nonoxynol-9 and a beta-blocker was measured. […] Again, mM represents millimolar.

The conditions of data set [1]: cited from earlier work.
The mark [2] stands for this setting: Homo sapiens, Sperm, Table 2, beta-blocker 1.0 mM alone, read-out: % Inhibition of Sperm Motility.
[3] abbreviates: Homo sapiens, Sperm, Table 5, beta-blocker 1 mM alone, read-out: % Inhibition of Sperm Motility.
[4] abbreviates: Homo sapiens, Sperm, Table 3, beta-blocker 1.0 mM alone, read-out: % Inhibition of Sperm Motility.

Like-named read-outs stand apart in the source and are kept apart here.

As a reminder, the inhibition is the drop in the measured response relative to a control, in per cent.

Turning to `CC(C)NCC(O)COc1cccc2ccccc12` (racemic) [d,1-Propranolol], the inhibition at 1000 µM with human sperm (setting [2]) is 24.6%; in the data set on human sperm (setting [3]) it was 10.5%.

Consider `C=CCc1ccccc1OC[C@@H](O)CNC(C)C` [1-Alprenolol], for which the values for the inhibition at 1000 µM in the data set on human sperm (setting [2]) and with human sperm (setting [4]) were 17% and 26.9%, respectively.

Take `CCCC(=O)Nc1ccc(OCC(O)CNC(C)C)c(C(C)=O)c1` (stereo not drawn) [Acebutolol]: the inhibition at 25000 µM with human sperm (Homo sapiens, Sperm, Table 4) turned out to be 11.3%.

Turning to `CCc1cccc2cc(C(O)CNC(C)(C)C)oc12` (stereo not drawn) [Bufuralol], the inhibition at 1000 µM in the data set with human sperm (Homo sapiens, Sperm, read-out: % Inhibition of Sperm Motility, Table 2, beta-blocker 1.0 mM alone) was determined as 28.5%; in the data set with human sperm (Homo sapiens, Sperm, read-out: % Inhibition of Sperm Motility, Table 3, beta-blocker 1.0 mM alone), 22%. Besides, the “apparent octanol/buffer (pH 7.4) partition coefficient” value (shortened to “apparent octanol/buffer”) in data set [1] is “greater than 1”.

Turning to `COCCc1ccc(OCC(O)CNC(C)C)cc1` (stereo not drawn) [Metoprolol], the inhibition at 10000 µM in the data set on human sperm (Homo sapiens, Sperm, Table 2, beta-blocker 10.0 mM alone) worked out at 7.1%; with human sperm (Homo sapiens, Sperm, Table 3, beta-blocker 10 mM alone) it was 0%.

Turning to `C=CCOc1ccccc1OCC(O)CNC(C)C` (stereo not drawn) [Oxprenolol], the inhibition at 5000 µM in the data set on human sperm (Homo sapiens, Sperm, Table 2, beta-blocker 5.0 mM alone) amounted to 3.4%; with human sperm (Homo sapiens, Sperm, Table 3, beta-blocker 5 mM alone), 0%.

In the case of `CC(C)(C)NC[C@H](O)COc1ccccc1C1CCCC1` [Penbutolol], the inhibition at 100 µM in the data set with human sperm (Homo sapiens, Sperm, Table 2) was found to be 6.2%; in the data set on human sperm (Homo sapiens, Sperm, Table 3) it was 0%; in the data set with human sperm (Homo sapiens, Sperm, Table 5) it was 17.8%. In addition, the “apparent octanol/buffer” value in data set [1] was “greater than 1”.

On to `CC(C)NCC(O)COc1cccc2[nH]ccc12` (stereo not drawn) [Pindolol], for which, in the data set on human sperm (Homo sapiens, Sperm, Table 3), the inhibition at 25000 µM came to 10.2%.

Take `CC(C)(C)NC[C@H](O)COc1nsnc1N1CCOCC1` [Timolol]: the inhibition at 25000 µM in the data set on human sperm (Homo sapiens, Sperm, Table 4) is 4.9%.

`C=CCc1ccccc1OCC(O)CNC(C)C` (stereo not drawn) [alprenolol]: in data set [1], the “apparent octanol/buffer” value is listed as “greater than 1”.

On to `CC(C)NC[C@@H](O)COc1cccc2ccccc12` [d-Propranolol], for which the inhibition at 1000 µM with human sperm (Homo sapiens, Sperm, Table 1, d-Propranolol 1.0 mM alone, % of control, read-out: % Inhibition of Sperm Motility) came out at 28%; in the data set on human sperm (setting [2]), 3.6%; in the data set with human sperm (setting [4]), 4%; in the data set on human sperm (setting [3]) it was 0.2%. The inhibition at 2500 µM with human sperm (Homo sapiens, Sperm, Table 1, d-Propranolol 2.5 mM alone, % of control) stood at 76.5%.

Consider Nonoxynol-9, for which the “% Inhibition of Sperm Motility” value in the data set with human sperm (Table 1, Nonoxynol-9 0.16 mM alone, % of control) was 12.5%; in the data set on human sperm (Table 1, Nonoxynol-9 1.6 mM alone, % of control) it was 97.7%; with human sperm (Table 2, different sperm source, Nonoxynol-9 at its IC50, alone), 50%; in the data set on human sperm (Table 3, another sperm source, Nonoxynol-9 at its IC50, alone), 50.0%; with human sperm (Table 4, another sperm source, Nonoxynol-9 at its IC50, alone), 50.0%.

Turning to Octoxynol, the “% Inhibition of Sperm Motility” value in the data set with human sperm (Table 5, another sperm source, Octoxynol at its IC50, alone) came out at 50.0%.

The record behind these values is patent US4795761A, “Contraceptive composition” (Euroceltique S.A., priority 1986, dated 1989).
